According to patent US20250049798A1, “WEE1 PROTEIN KINASE DEGRADATION AGENT AND USE THEREOF” (HANGZHOU GLUBIO PHARMACEUTICAL CO. LTD., priority 2021, published 2025):
Where two headings read alike, the source gives them in different places.

Molecular target: HiBiT tagged Wee1 (Homo sapiens, UniProt P30291)
Assay: Wee1 protein degradation assay (HiBiT assay)
Assay type: cell-based
[1] = engineered HT-1080 cells, 20 hours
[2] = engineered HT-1080 cells, 20 hours, maximum percentage of Wee1 degradation, read-out: HiBiT Wee1: Dmax

Chain of HiBiT tagged Wee1 (P30291 whole entry): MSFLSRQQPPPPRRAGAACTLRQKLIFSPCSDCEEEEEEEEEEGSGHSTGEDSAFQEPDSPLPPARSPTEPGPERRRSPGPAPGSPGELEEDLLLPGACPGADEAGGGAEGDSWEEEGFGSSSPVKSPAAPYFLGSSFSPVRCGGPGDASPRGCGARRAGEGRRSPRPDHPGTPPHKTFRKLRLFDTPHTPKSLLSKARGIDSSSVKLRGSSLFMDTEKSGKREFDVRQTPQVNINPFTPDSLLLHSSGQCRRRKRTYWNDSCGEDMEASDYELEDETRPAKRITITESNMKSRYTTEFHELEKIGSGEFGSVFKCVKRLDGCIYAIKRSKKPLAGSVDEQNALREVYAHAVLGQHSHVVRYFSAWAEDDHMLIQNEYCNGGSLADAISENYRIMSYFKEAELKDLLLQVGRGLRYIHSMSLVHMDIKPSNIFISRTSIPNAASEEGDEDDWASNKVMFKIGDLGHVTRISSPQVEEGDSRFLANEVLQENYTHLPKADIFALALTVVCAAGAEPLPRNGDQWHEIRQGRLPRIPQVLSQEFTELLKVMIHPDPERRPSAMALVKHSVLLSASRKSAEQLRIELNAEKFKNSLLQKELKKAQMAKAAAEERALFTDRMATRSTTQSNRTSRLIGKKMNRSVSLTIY

| Structure (SMILES) | DC50 [1] [nM] | Dmax [2] [%] | Dmax (HT-1080, read-out: HiBiT Wee1: Dmax) [%] |
| --- | --- | --- | --- |
| C=CCn1c(=O)c2cnc(Nc3ccc(N4CCN(CC5CCN(c6ccc(NC7CCC(=O)NC7=O)cc6F)CC5)CC4)c(C)c3)nc2n1-c1ccc2c(n1)[C@@](O)(CC)CC2 (stereo partly shown) [Compound 128] | < 100 | > 75 | – |
| C=CCn1c(=O)c2cnc(Nc3ccc(N4CCN(CC5CCN(c6ccc(NC7CCC(=O)NC7=O)cc6F)CC5)CC4)cc3)nc2n1-c1cccc(C(C)(C)O)n1 (stereo not shown) [Compound 102-A] | < 100 | > 75 | – |
| C=CCn1c(=O)c2cnc(Nc3ccc(N4CCN(C5CC6(C5)CN(c5ccc7c(N8CCC(=O)NC8=O)nn(C)c7c5)C6)CC4)cc3)nc2n1-c1ccc2c(n1)[C@@](O)(CC)CC2 [Compound 170] | < 100 | > 75 | – |
| C=CCn1c(=O)c2cnc(Nc3ccc(N4CCN(CC5CCN(Cc6cccc7c6n(C)c(=O)n7C6CCC(=O)NC6=O)CC5)CC4)cc3)nc2n1-c1cccc(C(C)(C)O)n1 (stereo not shown) [Compound 64] | < 100 | 50 to 75 | – |
| C=CCn1c(=O)c2cnc(Nc3ccc(N4CCN(CC5CCN(c6ccc(NC7CCC(=O)NC7=O)cn6)CC5)CC4)cc3)nc2n1-c1ccc2c(n1)[C@@](O)(CC)CC2 (stereo partly shown) [Compound 136] | < 100 | > 75 | – |
| C=CCn1c(=O)c2cnc(Nc3ccc(C4CCN(C5CCN(c6ccc7c(c6)C(=O)N(C6CCC(=O)NC6=O)C7=O)CC5)CC4)cc3)nc2n1-c1ccc2c(n1)[C@@](O)(CC)CC2 (stereo partly shown) [Compound 75] | < 100 | 50 to 75 | – |
| C=CCn1c(=O)c2cnc(Nc3ccc(N4CCC(CN5CCN(c6ccc(NC7CCC(=O)NC7=O)cc6F)CC5)CC4)c(C)c3)nc2n1-c1ccc2c(n1)[C@@](C)(O)CC2 (stereo partly shown) [Compound 133] | < 100 | > 75 | – |
| C=CCn1c(=O)c2cnc(Nc3ccc(N4CCN(CC5CCN(c6ncc(NC7CCC(=O)NC7=O)cc6F)CC5)CC4)nc3)nc2n1-c1ccc2c(n1)[C@@](O)(CC)CC2 (stereo partly shown) [Compound 195] | < 100 | > 75 | – |
| C=CCn1c(=O)c2cnc(Nc3ccc(N4CCN(CC5CCN(c6ccc(NC7CCC(=O)NC7=O)cc6F)CC5)CC4)cc3)nc2n1-c1ccc2c(n1)[C@@](C)(O)CCC2 (single isomer, unassigned) [Compound 191] | < 100 | > 75 | – |
| C=CCn1c(=O)c2cnc(Nc3ccc(N4CCC(N5CCN(c6cccc7c6n(C)c(=O)n7C6CCC(=O)NC6=O)CC5)CC4)cc3)nc2n1-c1cccc(C(C)(C)O)n1 (stereo not shown) [Compound 68] | < 100 | 50 to 75 | – |
| C=CCn1c(=O)c2cnc(Nc3ccc(N4CCN(CCOc5ccc6c(c5)C(=O)N(C5CCC(=O)NC5=O)C6=O)CC4)cc3)nc2n1-c1cccc(C(C)(C)O)n1 (stereo not shown) [Compound 63] | < 100 | 50 to 75 | – |
| C=CCn1c(=O)c2cnc(Nc3ccc(C4CCN(CC5CCN(c6ccc(NC7CCC(=O)NC7=O)cc6F)CC5)CC4)cc3)nc2n1-c1cccc(C(C)(C)O)n1 (stereo not shown) [Compound 73] | < 100 | > 75 | – |
| C=CCn1c(=O)c2cnc(Nc3ccc4c(c3)CN(CCCCCCNc3ccc5c(c3)C(=O)N(C3CCC(=O)NC3=O)C5=O)CC4)nc2n1-c1cccc(C(C)(C)O)n1 (stereo not shown) [Compound 22] | > 1000 | – | < 50 |
| C=CCn1c(=O)c2cnc(Nc3ccc(N4CCN(CC5CCN(c6ccc7c(c6)CN(C6CCC(=O)NC6=O)C7=O)CC5)CC4)cc3)nc2n1-c1cccc(C(C)(C)O)n1 (stereo not shown) [Compound 25] | < 100 | 50 to 75 | – |
| C=CCn1c(=O)c2cnc(Nc3ccc(N4CCC(CN5CCN(c6cccc7c6n(C)c(=O)n7C6CCC(=O)NC6=O)CC5)CC4)cc3)nc2n1-c1cccc(C(C)(C)O)n1 (stereo not shown) [Compound 90] | < 100 | > 75 | – |
| C=CCn1c(=O)c2cnc(Nc3ccc(N4CCC(CN5CCC(c6cccc(NC7CCC(=O)NC7=O)c6)CC5)CC4)cc3)nc2n1-c1cccc(C(C)(C)O)n1 (stereo not shown) [Compound 145] | 100 to 1000 | 50 to 75 | – |
| O=C1CCC(N2C(=O)c3ccc(N4CCC(CCN5CCN(c6ccc(Nc7ncc8c(=O)n(-c9c(Cl)cccc9Cl)c9nccn9c8n7)cc6)CC5)CC4)cc3C2=O)C(=O)N1 (stereo not shown) [Compound 4] | > 1000 | < 50 | – |
